Some results are limits rather than exact numbers.

For orientation: EC50 means the concentration at which the effect is half-maximal. The low end stands for an effect from little substance, the high end for a need for much substance.

hTREM2, sequence (Q9NZC2 19-230): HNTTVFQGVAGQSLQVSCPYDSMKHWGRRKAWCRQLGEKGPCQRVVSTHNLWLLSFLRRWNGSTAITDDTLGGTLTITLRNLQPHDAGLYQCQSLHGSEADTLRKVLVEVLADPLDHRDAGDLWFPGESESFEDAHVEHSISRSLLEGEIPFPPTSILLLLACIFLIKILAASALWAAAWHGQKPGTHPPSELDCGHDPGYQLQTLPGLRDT
hTREM2, sequence (O43914 22-113 partner): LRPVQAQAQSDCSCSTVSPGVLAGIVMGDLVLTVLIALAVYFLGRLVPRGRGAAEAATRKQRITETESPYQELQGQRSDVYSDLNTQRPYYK

The target in this assay is hTREM2 (Homo sapiens, UniProt Q9NZC2). The assay is described as follows: TREM2 activity by cellular Syk phosphorylation (AlphaScreen/AlphaLISA) in TREM2/DAP12-HEK cells, used for Examples 1-305. Format: cell-based. More on the design: expressed in transfected cells. As to conditions: HEK293 Cells. In short, it runs like this:
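Phospho-Syk (Tyr525/526) over total Syk quantified by AlphaScreen in lysates of cloned TREM2/DAP12-overexpressing HEK293 cells after 45 min compound treatment at room temperature, 1% final DMSO. Values expressed relative to 100 nM anti-TREM2 antibody (positive) and isotype IgG (negative) controls; curves fitted with 4-parameter logistic model.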
Background: Bead proximity is the source of the signal in Alpha formats.
For the compound `Cc1cc([C@H]2CN(c3nc(-c4ccc(F)cc4F)c4nc(C)c(C)nc4n3)CCO2)ccn1` [Example 33, 4-(2,4-difluorophenyl)-6,7-dimethyl-2-((2S)-2-(2-methyl-4-pyridinyl)-4-morpholinyl)pteridine], the EC50 was ≤ 50 nM and the “hTREM2 Emax” value is “++++ (Emax>250)”.
Take `Cc1ccc(-c2nc(N3CCO[C@@H](c4cnn(C)c4)C3)nc3nc(C)c(C)nc23)c(F)c1` [Example 37, 4-(2-fluoro-4-methylphenyl)-6,7-dimethyl-2-((2S)-2-(1-methyl-1H-pyrazol-4-yl)-4-morpholinyl)pteridine]: the EC50 is ≤ 50 nM; the “hTREM2 Emax” value was “+++ (Emax>150 and ≤250)”.
Turning to `Cc1ccc(-c2nc(N3CCO[C@@H](c4cnn(C5CC5)c4)C3)nc3nc(C)c(C)nc23)c(F)c1` [Example 38, 2-((2S)-2-(1-cyclopropyl-1H-pyrazol-4-yl)-4-morpholinyl)-4-(2-fluoro-4-methylphenyl)-6,7-dimethylpteridine], the EC50 was ≤ 50 nM; the “hTREM2 Emax” value is “+++ (Emax>150 and ≤250)”.
For `Cc1ccc(-c2nc(N3CCO[C@@H](c4ccnc(C)c4)C3)nc3nc(C)c(C)nc23)c(F)c1` [Example 39, 4-(2-fluoro-4-methylphenyl)-6,7-dimethyl-2-((2S)-2-(2-methyl-4-pyridinyl)-4-morpholinyl)pteridine], the EC50 was ≤ 50 nM; the “hTREM2 Emax” value was “+++ (Emax>150 and ≤250)”.
For `Cc1nc2nc(N3CCO[C@@H](c4cnn(C)c4)C3)nc(CCC(F)(F)F)c2nc1C` [Example 40, 6,7-dimethyl-2-((2S)-2-(1-methyl-1H-pyrazol-4-yl)-4-morpholinyl)-4-(3,3,3-trifluoropropyl)pteridine], the EC50 was in the range of 50 to 500 nM; the “hTREM2 Emax” value is “+ (Emax>45 and ≤100)”.
With `Cc1cc([C@H]2CN(c3nc(CCC(F)(F)F)c4nc(C)c(C)nc4n3)CCO2)ccn1` [Example 41, 6,7-dimethyl-2-((2S)-2-(2-methyl-4-pyridinyl)-4-morpholinyl)-4-(3,3,3-trifluoropropyl)pteridine], the EC50 lay in the range of 50 to 500 nM; the “hTREM2 Emax” value is “+ (Emax>45 and ≤100)”.
For the compound `Cc1nc2nc(N3CCO[C@@H](c4cnn(C)c4)C3)nc([C@H]3C[C@H](C(F)(F)F)C3)c2nc1C` [Example 42, 6,7-dimethyl-2-((2S)-2-(1-methyl-1H-pyrazol-4-yl)-4-morpholinyl)-4-(trans-3-(trifluoromethyl)cyclobutyl)pteridine], the EC50 is ≤ 50 nM; the “hTREM2 Emax” value is “++ (Emax>100 and ≤150)”.
With `Cc1nc2nc(N3CCO[C@@H](c4cnn(C)c4)C3)nc([C@H]3C[C@@H](C(F)(F)F)C3)c2nc1C` [Example 43, 6,7-dimethyl-2-((2S)-2-(1-methyl-1H-pyrazol-4-yl)-4-morpholinyl)-4-(cis-3-(trifluoromethyl)cyclobutyl)pteridine], the EC50 fell in the range of 50 to 500 nM; the “hTREM2 Emax” value is “+++ (Emax>150 and ≤250)”.
As to `Cc1nc2nc(N3CCO[C@@H](c4cnn(C)c4)C3)nc([C@H]3C[C@@H](C(F)F)C3)c2nc1C` [Example 44, 4-(cis-3-(difluoromethyl)cyclobutyl)-6,7-dimethyl-2-((2S)-2-(1-methyl-1H-pyrazol-4-yl)-4-morpholinyl)pteridine], the EC50 is 50 to 500 nM; the “hTREM2 Emax” value was “+++ (Emax>150 and ≤250)”.
Regarding `Cc1nc2nc(N3CCO[C@@H](c4cnn(C)c4)C3)nc([C@H]3C[C@H](C(F)F)C3)c2nc1C` [Example 45, 4-(trans-3-(difluoromethyl)cyclobutyl)-6,7-dimethyl-2-((2S)-2-(1-methyl-1H-pyrazol-4-yl)-4-morpholinyl)pteridine], the EC50 lay within 50 to 500 nM; the “hTREM2 Emax” value was “++ (Emax>100 and ≤150)”.
With `Cc1nc2nc(N3CCO[C@@H](c4cnn(C)c4)C3)nc(C3CC4(C3)CC(F)(F)C4)c2nc1C` [Example 46, 4-(6,6-difluorospiro[3.3]heptan-2-yl)-6,7-dimethyl-2-((2S)-2-(1-methyl-1H-pyrazol-4-yl)-4-morpholinyl)pteridine], the concentration for a half-maximal effect (EC50) was ≤ 50 nM; the “hTREM2 Emax” value is “+++ (Emax>150 and ≤250)”.
On to `Cc1nc2nc(N3CCO[C@@H](c4cnn(C5CC5)c4)C3)nc([C@H]3C[C@@H](C(F)F)C3)c2nc1C` [Example 47, 2-((2S)-2-(1-cyclopropyl-1H-pyrazol-4-yl)-4-morpholinyl)-4-(cis-3-(difluoromethyl)cyclobutyl)-6,7-dimethylpteridine], for which the half-maximal effective concentration (EC50) was ≤ 50 nM; the “hTREM2 Emax” value was “+ (Emax>45 and ≤100)”.
On to `Cc1nc2nc(N3CCO[C@@H](c4cnn(C5CC5)c4)C3)nc([C@H]3C[C@H](C(F)F)C3)c2nc1C` [Example 48, 2-((2S)-2-(1-cyclopropyl-1H-pyrazol-4-yl)-4-morpholinyl)-4-(trans-3-(difluoromethyl)cyclobutyl)-6,7-dimethylpteridine], for which the EC50 was ≤ 50 nM; the “hTREM2 Emax” value is “++ (Emax>100 and ≤150)”.
As to `Cc1nc2nc(N3CCO[C@@H](c4cnn(C5CC5)c4)C3)nc(C3CC4(C3)CC(F)(F)C4)c2nc1C` [Example 49, 2-((2S)-2-(1-cyclopropyl-1H-pyrazol-4-yl)-4-morpholinyl)-4-(6,6-difluorospiro[3.3]heptan-2-yl)-6,7-dimethylpteridine], the EC50 was ≤ 50 nM; the “hTREM2 Emax” value is “++ (Emax>100 and ≤150)”.
With `Cc1nc2nc(N3CCO[C@@H](c4cnn(C5CC5)c4)C3)nc([C@H]3C[C@H](C(F)(F)F)C3)c2nc1C` [Example 50, 2-((2S)-2-(1-cyclopropyl-1H-pyrazol-4-yl)-4-morpholinyl)-6,7-dimethyl-4-(trans-3-(trifluoromethyl)cyclobutyl)pteridine], the EC50 is ≤ 50 nM; the “hTREM2 Emax” value was “+++ (Emax>150 and ≤250)”.
As to `Cc1cc([C@H]2CN(c3nc4nc(C)c(C)nc4c([C@H]4C[C@H](C(F)(F)F)C4)n3)CCO2)cnn1` [Example 51, 6,7-dimethyl-2-((2S)-2-(6-methyl-4-pyridazinyl)-4-morpholinyl)-4-(trans-3-(trifluoromethyl)cyclobutyl)pteridine], the EC50 is ≤ 50 nM; the “hTREM2 Emax” value is “+++ (Emax>150 and ≤250)”.
Regarding `Cc1cc([C@@H]2CN(c3nc4nc(C)c(C)nc4c([C@H]4C[C@H](C(F)(F)F)C4)n3)CCO2)cnn1` [Example 52, 6,7-dimethyl-2-((2R)-2-(6-methyl-4-pyridazinyl)-4-morpholinyl)-4-(trans-3-(trifluoromethyl)cyclobutyl)pteridine], the EC50 was 50 to 500 nM; the “hTREM2 Emax” value was “+++ (Emax>150 and ≤250)”.
Take `Cc1cc([C@H]2CN(c3nc4nc(C)c(C)nc4c([C@H]4C[C@@H](C(F)F)C4)n3)CCO2)ccn1` [Example 53, 4-(cis-3-(difluoromethyl)cyclobutyl)-6,7-dimethyl-2-((2S)-2-(2-methyl-4-pyridinyl)-4-morpholinyl)pteridine]: the EC50 was ≤ 50 nM; the “hTREM2 Emax” value was “++ (Emax>100 and ≤150)”.
As to `Cc1cc([C@H]2CN(c3nc4nc(C)c(C)nc4c([C@H]4C[C@H](C(F)F)C4)n3)CCO2)ccn1` [Example 54, 4-(trans-3-(difluoromethyl)cyclobutyl)-6,7-dimethyl-2-((2S)-2-(2-methyl-4-pyridinyl)-4-morpholinyl)pteridine], the EC50 is ≤ 50 nM; the “hTREM2 Emax” value is “++ (Emax>100 and ≤150)”.
For the compound `Cc1cc([C@H]2CN(c3nc4nc(C)c(C)nc4c([C@H]4C[C@H](C(F)(F)F)C4)n3)CCO2)ccn1` [Example 55], the EC50 was ≤ 50 nM; the “hTREM2 Emax” value is “+++ (Emax>150 and ≤250)”.
Consider `Cc1cc([C@H]2CN(c3nc(C4CC5(C4)CC(F)(F)C5)c4nc(C)c(C)nc4n3)CCO2)ccn1` [Example 56, 4-(6,6-difluorospiro[3.3]heptan-2-yl)-6,7-dimethyl-2-((2S)-2-(2-methyl-4-pyridinyl)-4-morpholinyl)pteridine], for which the EC50 was ≤ 50 nM; the “hTREM2 Emax” value was “++ (Emax>100 and ≤150)”.
As to `Cc1nc2nc(N3CCO[C@@H](c4cnn(C)c4)C3)nc([C@@H]3C[C@H]3C(F)(F)F)c2nc1C` [Example 57, 6,7-dimethyl-2-((2S)-2-(1-methyl-1H-pyrazol-4-yl)-4-morpholinyl)-4-((1R,2R)-2-(trifluoromethyl)cyclopropyl)pteridine], the EC50 lay within 500 to 3000 nM; the “hTREM2 Emax” value was “++ (Emax>100 and ≤150)”.
As to `Cc1cc(Cl)ccc1-c1nc(N2CCO[C@@H](c3cnn(C)c3)C2)nc2nc(C)c(C)nc12` [Example 58, 4-(4-chloro-2-methylphenyl)-6,7-dimethyl-2-((2S)-2-(1-methyl-1H-pyrazol-4-yl)-4-morpholinyl)pteridine], the EC50 fell in the range of 50 to 500 nM; the “hTREM2 Emax” value was “+++ (Emax>150 and ≤250)”.
Turning to `Cc1cc(F)ccc1-c1nc(N2CCO[C@@H](c3cnn(C)c3)C2)nc2nc(C)c(C)nc12` [Example 59, 4-(4-fluoro-2-methylphenyl)-6,7-dimethyl-2-((2S)-2-(1-methyl-1H-pyrazol-4-yl)-4-morpholinyl)pteridine], the EC50 is 50 to 500 nM; the “hTREM2 Emax” value was “+++ (Emax>150 and ≤250)”.
For the compound `Cc1nc2nc(N3CCO[C@@H](c4cnn(C)c4)C3)nc(-c3ccc(F)c(F)c3)c2nc1C` [Example 60, 4-(3,4-difluorophenyl)-6,7-dimethyl-2-((2S)-2-(1-methyl-1H-pyrazol-4-yl)-4-morpholinyl)pteridine], the concentration for a half-maximal effect (EC50) is ≤ 50 nM; the “hTREM2 Emax” value is “+++ (Emax>150 and ≤250)”.
For the compound `Cc1nc2nc(N3CCO[C@@H](c4cnn(C)c4)C3)nc(-c3ccc(F)c(F)c3F)c2nc1C` [Example 61, 6,7-dimethyl-2-((2S)-2-(1-methyl-1H-pyrazol-4-yl)-4-morpholinyl)-4-(2,3,4-trifluorophenyl)pteridine], the concentration for a half-maximal effect (EC50) is ≤ 50 nM; the “hTREM2 Emax” value is “+++ (Emax>150 and ≤250)”.

Values taken from US11884675B2, “Heterocyclic compounds as triggering receptor expressed on myeloid cells 2 agonists and methods of use” (AMGEN INC., priority 2020, dated 2024).
